According to patent publication US20260184715A1, “NOVEL PYRROLO[1,2-d][1,2,4] TRIAZINONE DERIVATIVES AS NEGATIVE ALLOSTERIC MODULATORS OF MGLU7 RECEPTORS” (Neurosterix Pharma Sarl., priority 2022, published 2026):
pIC50: −log10 of the molar value.

Molecular target: T1, human metabotropic glutamate 7 receptor (hmGlu7) (Homo sapiens, UniProt Q14831)
T1 construct: expressed in transfected cells
Test: mGlu7 assay on HEK-expressing human mGlu7: fluorescent cell based-Ca2+ mobilization assay (FLIPR), inhibition of EC80 L-AP4 response
Settings: HEK-293 cells expressing hmGlu7, EC80 L-AP4; mean of at least three independent experiments in duplicate; read-out: Ca^2+ Flux (mean IC50)
Source text: mGlu7 Assay on HEK-Expressing Human mGLU7
The cDNA encoding the human metabotropic glutamate 7 receptor (hmGlu7), (accession number NM_181874.2, NCBI Nucleotide database browser), was subcloned into an expression vector containing also the hygromycin resistance gene. In parallel, the cDNA encoding a G protein allowing redirection of the activation signal to intracellular calcium flux was subcloned into a different expression vector containing also the Puromycin resistance gene. Transfection of both these vectors into HEK293 cells with PolyFect reagent (Qiagen) according to supplier's protocol, and hygromycin and puromycin treatment allowed selection of antibiotic resistant cells which had integrated stably one or more copies of the plasmids. Positive cellular clones expressing hmGlu7 were identified in a functional assay measuring changes in calcium fluxes in response to glutamate and L-AP4 or known mGlu7 orthosteric antagonists.
HEK-293 cells expressing hmGlu7 were maintained in media containing DMEM, Fetal Bovine Serum (10%), GlutaMAX™ (2 mM), penicillin (100 units/mL), streptomycin (100 μg/mL), geneticin (100 μg/mL) and hygromycin-B (40 μg/mL) and puromycin (1 μg/mL) at 37° C. with 5% CO2 in a humidified atmosphere.
Human mGlu7 HEK-293 cells were plated out 24 hours prior to a fluorescent cell-based calcium mobilization assay using FLIPR^384 assay (Molecular Device, Sunnyvale, CA, USA) in black-walled, clear-bottomed, poly-L-ornithine-coated 384-well plates at a density of 25,000 cells/well in a glutamine/glutamate free DMEM medium containing fetal bovine serum (10%), penicillin (100 units/mL), streptomycin (100 μg/mL) and doxycyline (1 μg/ml) at 37° C. with 5% CO2 in a humidified atmosphere.
On the day of the assay, the medium was aspirated and the cells were loaded with a 3 μM solution of Fluo4-AM (LuBioScience, Lucerne, Switzerland) in 0.03% pluronic acid. After 1 hour at 37° C./5% CO2, the non incorporated dye was removed by washing cell plate with the assay buffer. All assays were performed in a pH 7.4 buffered-Solution containing 20 mM HEPES, 143 mM NaCl, 6 mM KCl, 1 mM MgSO4, 1 mM CaCl2, 0.125 mM sulfinpyrazone and 0.1% glucose.
After 10 s of basal fluorescence recording, various concentrations of the compounds of the invention were added to the cells. Changes in fluorescence levels were first monitored for 180 s in order to detect any agonist activity of the compounds. Then the cells were stimulated by an EC80 L-AP4 concentration for an additional 110 s in order to measure inhibiting activities of the compounds of the invention. EC80 L-AP4 concentration is the concentration giving 80% of the maximal glutamate response.
The concentration-response curves of L-AP4 or representative compounds of the present invention were generated using the Prism GraphPad software (Graph Pad Inc, San Diego, USA). The curves were fitted to a four-parameter logistic equation:
(Y=Bottom+(Top−Bottom)/(1+10^((Log IC50−X)*Hill Slope)
allowing determination of IC50 values.
The Table 3 below represents the mean IC50 obtained from at least three independent experiments of selected molecules performed in duplicate.

T1 sequence (Q14831 35-922 isoform Q14831-2 limits assumed): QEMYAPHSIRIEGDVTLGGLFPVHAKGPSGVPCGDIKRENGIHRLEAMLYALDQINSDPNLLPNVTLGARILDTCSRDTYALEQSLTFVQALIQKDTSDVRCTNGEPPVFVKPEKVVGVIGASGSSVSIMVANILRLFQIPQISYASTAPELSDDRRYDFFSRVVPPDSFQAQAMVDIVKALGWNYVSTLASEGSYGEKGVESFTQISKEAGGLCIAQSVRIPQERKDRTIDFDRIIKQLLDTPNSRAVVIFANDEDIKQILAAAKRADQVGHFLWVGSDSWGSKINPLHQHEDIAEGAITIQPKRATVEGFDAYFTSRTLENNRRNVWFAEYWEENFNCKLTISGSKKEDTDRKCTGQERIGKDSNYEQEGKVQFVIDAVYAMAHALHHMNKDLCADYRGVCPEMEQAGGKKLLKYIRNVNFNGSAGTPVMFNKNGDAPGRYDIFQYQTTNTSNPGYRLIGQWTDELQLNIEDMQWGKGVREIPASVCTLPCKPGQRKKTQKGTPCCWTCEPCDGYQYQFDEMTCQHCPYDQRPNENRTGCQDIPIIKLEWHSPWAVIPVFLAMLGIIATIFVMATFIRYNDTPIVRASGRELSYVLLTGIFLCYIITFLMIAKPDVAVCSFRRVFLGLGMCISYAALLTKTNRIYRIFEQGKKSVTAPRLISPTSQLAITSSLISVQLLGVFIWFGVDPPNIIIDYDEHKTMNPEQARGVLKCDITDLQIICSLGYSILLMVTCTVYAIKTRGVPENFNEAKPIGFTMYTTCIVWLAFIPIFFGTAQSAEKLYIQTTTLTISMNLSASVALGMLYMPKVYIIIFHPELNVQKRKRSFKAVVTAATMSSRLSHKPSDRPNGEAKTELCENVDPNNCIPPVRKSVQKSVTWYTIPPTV

| Compound | pIC50 |
| --- | --- |
| Cc1c(-c2ccnc3c2CCN3C)cc2cnn(-c3ccccn3)c(=O)n12 [1-118, 6-methyl-7-(1-methyl-2,3-dihydropyrrolo[2,3-b]pyridin-4-yl)-3-(2-pyridyl)pyrrolo[1,2-d][1,2,4]triazin-4-one] | > 7.00 |
| Cc1c(-c2cccc(OC3CC3)c2)c(C)n2c(=O)n(-c3ncc(N)cn3)ncc12 [1-81] | 6.00 to 7.00 |
| Cc1c(-c2cccc3c2OCCN3C)cc2cnn(-c3ncccn3)c(=O)n12 [1-63] | > 7.00 |
| COc1ccc(-c2c(C)c3cnn(-c4ncccn4)c(=O)n3c2C)c(F)c1 [1-135] | > 7.00 |
| COc1nccc(-c2c(C)c3cnn(-c4ncccn4)c(=O)n3c2C)c1F [1-138] | 6.00 to 7.00 |
| Cc1c(-c2cccc(OC3CC3)c2)c(C)n2c(=O)n(-c3ncccc3F)ncc12 [1-51] | 6.00 to 7.00 |
| Cc1c(-c2cc3cnn(-c4ccccn4)c(=O)n3c2C)ccnc1OC1CC1 [1-143] | > 7.00 |
| CCn1ncc2c(C)c(-c3cccc4c3CCN4C)c(C)n2c1=O [1-100] | 6.00 to 7.00 |
| COc1cc(-c2cc3cnn(-c4ncccn4)c(=O)n3c2C)ccn1 [1-114] | > 7.00 |
